Experimental data from paper PMC6787163, “Systematic Dual Targeting of Dendritic Cell C-Type Lectin Receptor DC-SIGN and TLR7 Using a Trifunctional Mannosylated Antigen” (Frontiers in Chemistry, 2019).

Assays:
DC-SIGN S-ECD = target: T1, DC-SIGN S-ECD (Homo sapiens, UniProt Q9NNX6); assay: SPR direct interaction assay on oriented DC-SIGN S-ECD surface; format: binding; details: SPR direct interaction, oriented tetrameric DC-SIGN ECD surface, apparent Kd; read-out: Kdapp
T1 construct: The ECD of DC-SIGN (residues 66–404) was overexpressed and purified as previously described; made in house
T1 sequence (Q9NNX6 66-404): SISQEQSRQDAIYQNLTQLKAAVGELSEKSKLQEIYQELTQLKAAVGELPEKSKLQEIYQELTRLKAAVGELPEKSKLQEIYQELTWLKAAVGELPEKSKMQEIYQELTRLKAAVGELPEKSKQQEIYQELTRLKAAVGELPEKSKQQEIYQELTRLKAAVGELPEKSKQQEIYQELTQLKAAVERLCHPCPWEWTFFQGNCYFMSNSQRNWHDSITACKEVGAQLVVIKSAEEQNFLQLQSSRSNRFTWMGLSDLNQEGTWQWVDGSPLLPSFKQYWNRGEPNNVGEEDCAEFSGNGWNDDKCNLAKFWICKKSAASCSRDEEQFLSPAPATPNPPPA
Procedure: (§1) The affinity of the clusters for the extracellular domain (ECD) of the DC-SIGN receptor (DC-SIGN ECD) was estimated via surface plasmon resonance (SPR) assays (Tabarani et al., [2009]). The apparent Kd was calculated in direct interaction mode using a surface functionalized in an oriented manner with DC-SIGN ECD. In this assay, tetrameric DC-SIGN ECD is attached to the surface of the sensor chip via the N-terminus of its neck oligomerization domain, thus presenting its four carbohydrate recognition domains toward the solvent, realistically mimicking the presentation of the receptor on cell surface (Porkolab et al., [2019]). For some of the low affinity ligands, in the mM range, it was not possible to determine their affinity with this assay, and therefore a competition experiment was performed providing IC50 values (Timpano et al., [2008]) (Figure 3A). […] When comparing equivalent clusters, the α1,2-di-mannoside (B series) bound with the highest affinity (Figure 3A). […] A potential explanation for this effect could be that the spacing of clusters is more important for the larger tri-mannosides.
The direct interaction experiments were executed on a T200 Biacore with a CM3 series S sensor chip. Contrary to the competition assay described above, in this test, DC-SIGN ECD used harbors a StreptagII in its N-terminus (DC-SIGN S-ECD) to allow its capture and functionalization onto the surface in an oriented manner. Flow cells were functionalized as previously described (Porkolab et al., [2019]). Briefly, after EDC/NHS activation, flow cells were functionalized with streptactin protein in a first step. Flow cell 1 was used as control, while other flow cells were, in a second round of activation, functionalized with 100 μg/mL of a DC-SIGN S-ECD up to a final density ranging between 2,500 and 3,000 RU, via tag specific capture and linkage by amine coupling chemistry simultaneously. The compounds were injected in running buffer of 25 mM Tris pH 8, 150 mM NaCl, 4 mM CaCl2, 0.05% Tween 20 onto the surface at increasing concentrations with a flow rate of 30 μL/min. The ligand titration led to the determination of an apparent Kd value. The data was analyzed in BIAcore BIAevaluation software for direct interaction 1:1 calculation assuming that the Kd will reflect the affinity of the ligands (glycoclusters) for the DC-SIGN oriented surface used as a whole.

DC-SIGN on moDC = assay: Binding of biotinylated mannoside library to moDCs by flow cytometry; format: cell-based, human; details: 10 μM biotinylated cluster, 30 min at 4°C, streptavidin staining
Procedure: Next, we assessed the binding of our clusters to cellular DC-SIGN using moDCs (Figure 3B, Supplementary Figure 1B). To this end, binding of the clusters a1–a6, b1–b6, c1–c6, d1–d6, and e1–e6, decorated with a biotin handle, was determined by flow cytometry. Clusters were bound to moDCs for 30 min at 4°C. By staining using fluorophore-conjugated streptavidin and washing at 4°C, the bound clusters could be quantified by flow cytometry. […] In control experiments ligand binding to DC-SIGN was inhibited using a blocking anti-DC-SIGN antibody (Supplementary Figure 1C).
Approximately 10^5 day 5 moDCs were washed and resuspended in 100 μL culture medium (pre-cooled to 4°C). 20 μg/mL AZN-D1 (anti-DC-SIGN, in house Geijtenbeek et al., [2002]) or purified mouse anti-human CD206 antibody (Clone 19.2, BD Bioscience) was added to the moDCs and pre-incubated for 45 min on ice. Subsequently, 10 μM of the biotinylated mannoside clusters or 1 μg/mL of Lewis^Y-conjugated polyacrylamide (positive control) was added, and incubated for 30 min at 4°C. Cells were then washed with pre-cooled PBS (4°C), and stained with Alexa647-labeled streptavidin (Invitrogen^TM) in PBS supplemented with 0.5% BSA and 0.02% NaN3 (PBA) for 30 min at 4°C. Upon washing in ice-cold PBA and fixation in PBS with 0.5% PFA, the fluorescence was measured by flow cytometry (CyAn™ ADP with Summit™ Software), and further analyzed using FlowJo v10.

moDCs = assay: Internalization of biotinylated hexavalent clusters by moDCs (flow cytometry); format: cell-based, human
Procedure: For the internalization, the moDCs were incubated with clusters b6, c6, d6, and e6 for 1 h at 4°C, where after unbound ligands were washed away with ice-cold medium. Warm medium was added to the moDCs, and samples were taken at the indicated time points and put on ice. Upon staining the moDCs with fluorophore-conjugated streptavidin, we could measure the signal loss of the membrane via flow cytometry. To exclude ligand-receptor dissociation before internalization, the moDCs were fixed under gentle conditions, hereby inhibiting receptor-mediated endocytosis. On fixed moDCs the clusters remained at the surface, as no signal loss could be detected (Supplementary Figure 1D). […] The di-mannoside clusters (b6, c6, and d6) were internalized relatively fast, with a 50% uptake within 5 min (Figure 5B). The tri-mannoside cluster e6 however remained longer at the membrane surface and only a 25% uptake was seen after 30 min. Similar results were seen using a pH-sensitive fluorophore. In acidic environments, such as the endosomes and lysosomes, the fluorescence of this dye increases. Pre-complexed clusters mirrored the accelerated uptake of the di-mannoside clusters over the e6 cluster (Supplementary Figure 1E). Although the DC-SIGN mediated uptake mechanism is known (Cambi et al., [2009]), the initiation trigger for endocytosis upon DC-SIGN-ligand binding remains unclear. Recognition of the di-mannoside clusters could induce signaling leading to accelerated uptake, whereas the tri-mannoside cluster could trigger a different signaling pathway. Nonetheless, the clusters harboring the smaller mannosides are preferred. Although the binding affinity of the clusters ranged from 0.9 to 6.6 μM, the di-mannosides induce more rapid DC-SIGN internalization over the tri-mannosides, and can thus increase intracellular peptide concentrations more efficiently for further antigen processing and presentation.
Immature day 5 moDCs were harvested and washed with cold HBSS (Thermo Fischer), after which half of the moDCs were gently fixed for 20 min at RT with 1% PFA in PBS. Afterwards, 20 μM of the different biotinylated mannose-clusters in cold HBSS were added. The moDCs were incubated for 1 h on ice, and washed in cold HBSS. Subsequently, warm HBSS was added to the cells, and cells were incubated at 37°C in a shaking heating block. At the indicated time points, a sample of the cells was taken and put on ice. After the last time point, the cells were stained with Streptavidin-Alexa647 (Thermo Fisher), measured using flow cytometry (CyAn™ ADP with Summit™ Software), and further analyzed using FlowJo v10. The same procedure was used for internalization with pHrodo^TM Red Avidin (Thermo Fischer). The different biotinylated mannose-clusters were however incubated with pHrodo-Avidin (ratio 2:1) for 15 min at 37°C, prior to moDC exposure. The fluorescence upon internalization was measured using flow cytometry (BD LSRFortessa™ X-20 with FACSDiva Software), and further analyzed using FlowJo v10.

DC-SIGN ECD = target: T2, DC-SIGN ECD (Homo sapiens, UniProt Q9NNX6); assay: SPR competition (inhibition) assay, DC-SIGN ECD on BSA-mannotriose surface; format: binding; details: DC-SIGN ECD 20 μM
T2 construct: The ECD of DC-SIGN (residues 66–404) was overexpressed and purified as previously described; made in house
T2 sequence (Q9NNX6 66-404): T1 sequence (Q9NNX6 66-404)
Procedure: as §1
The ECD of DC-SIGN (residues 66–404) was overexpressed and purified as previously described (Tabarani et al., [2009]). The DC-SIGN S-ECD construct used for direct interaction experiment (see below) has been overexpressed and purified as described elsewhere (Porkolab et al., [2019]). The SPR competition experiments were performed on a BIAcore T200 using a CM3 series S sensor chip. Flow cells were activated as previously described (Halary et al., [2002]). Flow cell 1 was functionalized with BSA, blocked with ethanolamine and subsequently used as a control surface. Flow cells 2 and 3 were treated with BSA-Man α1-3[Manα1-6]Man (Dextra) (60 μg/mL) in 10 mM NaOAc pH 4 and blocked with ethanolamine. The final densities on flow cells 2 and 3 were about 2,100 RU. The affinities of the various compounds for DC-SIGN ECD were evaluated via an established inhibition assay (Andreini et al., [2011]) in which DCSIGN ECD was injected at 20 μM alone or in the presence of increasing concentration of inhibitors. Injections were performed at 5 μL/min using 25 mM Tris-HCl pH 8, 150 mM NaCl, 4 mM CaCl2, 0.05% P20 surfactant as running buffer. The surface was regenerated by the injection of 50 mM EDTA. The data was analyzed in BIAcore BIAevaluation software using four parameter equation.

Row | Compound | Kd (DC-SIGN S-ECD) [µM] | binding to DC-SIGN on moDC (DC-SIGN on moDC) | internalization by moDCs (loss of surface streptavidin signal) (moDCs; 20 μM cluster, live moDCs) | internalization by moDCs (pHrodo-avidin fluorescence increase) (moDCs; clusters pre-complexed with pH-sensitive dye) | uptake by immature moDCs (moDCs; within 5 min at 37°C, 20 μM cluster) [%] | IC50 (DC-SIGN ECD) [µM]
1 | CC(=O)N[C@@H](CCCCn1cc(CO[C@H]2O[C@H](CO)[C@@H](O)[C@H](O)[C@@H]2O)nn1)C(=O)N[C@@H](CCCCn1cc(CO[C@H]2O[C@H](CO)[C@@H](O)[C@H](O)[C@@H]2O)nn1)C(=O)N[C@@H](CCCCn1cc(CO[C@H]2O[C@H](CO)[C@@H](O)[C@H](O)[C@@H]2O)nn1)C(=O)N[C@@H](CCCCn1cc(CO[C@H]2O[C@H](CO)[C@@H](O)[C@H](O)[C@@H]2O)nn1)C(=O)N[C@@H](CCCCn1cc(CO[C@H]2O[C@H](CO)[C@@H](O)[C@H](O)[C@@H]2O)nn1)C(=O)N[C@@H](CCCCn1cc(CO[C@H]2O[C@H](CO)[C@@H](O)[C@H](O)[C@@H]2O)nn1)C(=O)NCC(=O)N[C@@H](CCCCN)C(N)=O [A6] | 7.82 ± 0.44 | significantly higher binding |  |  |  | 
2 | CC(=O)N[C@@H](CCCCn1cc(CO[C@H]2O[C@H](CO[C@H]3O[C@H](CO)[C@@H](O)[C@H](O)[C@@H]3O)[C@@H](O)[C@H](O)[C@@H]2O)nn1)C(=O)N[C@@H](CCCCn1cc(CO[C@H]2O[C@H](CO[C@H]3O[C@H](CO)[C@@H](O)[C@H](O)[C@@H]3O)[C@@H](O)[C@H](O)[C@@H]2O)nn1)C(=O)N[C@@H](CCCCn1cc(CO[C@H]2O[C@H](CO[C@H]3O[C@H](CO)[C@@H](O)[C@H](O)[C@@H]3O)[C@@H](O)[C@H](O)[C@@H]2O)nn1)C(=O)N[C@@H](CCCCn1cc(CO[C@H]2O[C@H](CO[C@H]3O[C@H](CO)[C@@H](O)[C@H](O)[C@@H]3O)[C@@H](O)[C@H](O)[C@@H]2O)nn1)C(=O)N[C@@H](CCCCn1cc(CO[C@H]2O[C@H](CO[C@H]3O[C@H](CO)[C@@H](O)[C@H](O)[C@@H]3O)[C@@H](O)[C@H](O)[C@@H]2O)nn1)C(=O)N[C@@H](CCCCn1cc(CO[C@H]2O[C@H](CO[C@H]3O[C@H](CO)[C@@H](O)[C@H](O)[C@@H]3O)[C@@H](O)[C@H](O)[C@@H]2O)nn1)C(=O)NCC(=O)N[C@@H](CCCCN)C(N)=O [D6] | 6.56 ± 1.2 | no increase in binding | rapidly internalized | internalized rapidly | 50 | 
3 | CC(=O)N[C@@H](CCCCn1cc(CO[C@H]2O[C@H](CO[C@H]3O[C@H](CO)[C@@H](O)[C@H](O)[C@@H]3O)[C@@H](O)[C@H](O[C@H]3O[C@H](CO)[C@@H](O)[C@H](O)[C@@H]3O)[C@@H]2O)nn1)C(=O)NCC(=O)N[C@@H](CCCCn1cc(CO[C@H]2O[C@H](CO[C@H]3O[C@H](CO)[C@@H](O)[C@H](O)[C@@H]3O)[C@@H](O)[C@H](O[C@H]3O[C@H](CO)[C@@H](O)[C@H](O)[C@@H]3O)[C@@H]2O)nn1)C(=O)NCC(=O)N[C@@H](CCCCN)C(N)=O [E2] |  |  |  |  |  | 306 ± 4.75
